What follows are compounds tested on HBV (assay: HBV replication inhibition assay (BDNA assay) in HepG2.2.15 cells). Conditions: Hepatitis B virus, 144 h, 6 days incubation, encapsidated HBV DNA in supernatant by branched DNA QuantiGene assay.
Type: cell-based
Procedure: HBV Replication Inhibition Assay
HBV replication inhibition by the disclosed compounds were determined in cells infected or transfected with HBV or cells with stably integrated HBV, such as HepG2.2.15 cells (Sells et al. 1987). In this example, HepG2.2.15 cells were maintained in cell culture medium containing 10% fetal bovine serum (FBS), Geneticin, L-glutamine, penicillin and streptomycin. HepG2.2.15 cells were seeded in 96-well plates at a density of 40,000 cells/well and were treated with serially diluted compounds at a final DMSO concentration of 0.5% either alone or in combination by adding drugs in a checker box format. Cells were incubated with compounds for three days, after which medium was removed and fresh medium containing compounds was added to cells and incubated for another three days. At day 6, supernatant was removed and treated with DNase at 37° C. for 60 minutes, followed by enzyme inactivation at 75° C. for 15 minutes. Encapsidated HBV DNA was released from the virions and covalently linked HBV polymerase by incubating in lysis buffer (Affymetrix QS0010) containing 2.5 μg proteinase K at 50° C. for 40 minutes. HBV DNA was denatured by addition of 0.2 M NaOH and detected using a branched DNA (BDNA) QuantiGene assay kit according to manufacturer recommendation (Affymetrix). HBV DNA levels were also quantified using qPCR, based on amplification of encapsidated HBV DNA extraction with QuickExtraction Solution (Epicentre Biotechnologies) and amplification of HBV DNA using HBV specific PCR probes that can hybridize to HBV DNA and a fluorescently labeled probe for quantitation. In addition, cell viability of HepG2.2.15 cells incubated with test compounds alone or in combination was determined by using CellTitre-Glo reagent according to the manufacturer protocol (Promega). The mean background signal from wells containing only culture medium was subtracted from all other samples, and percent inhibition at each compound concentration was calculated by normalizing to signals from HepG2.2.15 cells treated with 0.5% DMSO using equation E1.
% inhibition (DMSOave−Xi)DMSOave×100% E1:
where DMSOave is the mean signal calculated from the wells that were treated with DMSO control (0% inhibition control) and X^1 is the signal measured from the individual wells. EC50 values, effective concentrations that achieved 50% inhibitory effect, were determined by non-linear fitting using Graphpad Prism software (San Diego, Calif.) and equation E2.
Y=Ymin+(Ymax−Ymin)/(1+10(Log EC50−X)×HillSlope) E2:
where Y represents percent inhibition values and X represents the logarithm of compound concentrations.
Selected disclosed compounds were assayed in the HBV replication assay (BDNA assay), as described above, and a representative group of these active compounds is shown in Table 3. […] In Table 3, “A” represents 1 nM<EC50≤100 nM; “B” represents 100 nM<EC50≤1,000 nM; and “C” represents 1,000 nM<EC50≤10,000 nM.

SMILES	EC50
C[C@H]1Cc2onc(-c3ncccn3)c2CN1C(=O)Nc1ccnc(Br)c1F [Example 8, (S)—N-(2-Bromo-3-fluoropyridin-4-yl)-6-methyl-3-(pyrimidin-2-yl)-6,7-dihydroisoxazolo[4,5-c]pyridine-5(4H)-carboxamide]	100 to 1000 nM
CC1(C)CN(C(=O)Nc2ccc(F)c(C(F)(F)F)c2)Cc2c(-c3ncccn3)noc21 [Example 14, N-(4-Fluoro-3-(trifluoromethyl)phenyl)-7,7-dimethyl-3-(pyrimidin-2-yl)-6,7-dihydroisoxazolo[4,5-c]pyridine-5(4H)-carboxamide]	1000 to 10000 nM
CC1(C)CN(C(=O)Nc2ccc(F)c(C#N)c2)Cc2c1noc2-c1ncccn1 [Example 9, N-(3-Cyano-4-fluorophenyl)-7,7-dimethyl-3-(pyrimidin-2-yl)-6,7-dihydroisoxazolo[4,3-c]pyridine-5(4H)-carboxamide]	1 to 100 nM
C[C@H]1Cc2noc(-c3ncccn3)c2CN1C(=O)Nc1ccnc(Br)c1F [Example 4, (S)—N-(2-Bromo-3-fluoropyridin-4-yl)-6-methyl-3-(pyrimidin-2-yl)-6,7-dihydroisoxazolo[4,3-c]pyridine-5(4H)-carboxamide]	1 to 100 nM
CC1(C)CN(C(=O)Nc2ccnc(C(F)F)c2F)Cc2c(-c3ncccn3)noc21 [Example 15, N-(2-(Difluoromethyl)-3-fluoropyridin-4-yl)-7,7-dimethyl-3-(pyrimidin-2-yl)-6,7-dihydroisoxazolo[4,5-c]pyridine-5(4H)-carboxamide]	100 to 1000 nM
CC1(C)CN(C(=O)Nc2ccnc(C(F)F)c2F)Cc2c1noc2-c1ncccn1 [Example 11, N-(2-(Difluoromethyl)-3-fluoropyridin-4-yl)-7,7-dimethyl-3-(pyrimidin-2-yl)-6,7-dihydroisoxazolo[4,3-c]pyridine-5(4H)-carboxamide]	100 to 1000 nM
C[C@H]1Cc2noc(-c3ncccn3)c2CN1C(=O)Nc1ccc(F)c(C(F)(F)F)c1 [Example 3, (S)—N-(4-Fluoro-3-(trifluoromethyl)phenyl)-6-methyl-3-(pyrimidin-2-yl)-6,7-dihydroisoxazolo[4,3-c]pyridine-5(4H)-carboxamide]	1 to 100 nM
C[C@H]1Cc2noc(-c3ncccn3)c2CN1C(=O)Nc1ccnc(C(F)F)c1F [Example 2, (S)—N-(2-(Difluoromethyl)-3-fluoropyridin-4-yl)-6-methyl-3-(pyrimidin-2-yl)-6,7-dihydroisoxazolo[4,3-c]pyridine-5(4H)-carboxamide]	1 to 100 nM
C[C@H]1Cc2onc(-c3ncccn3)c2CN1C(=O)Nc1ccc(F)c(C(F)(F)F)c1 [Example 7, (S)—N-(4-Fluoro-3-(trifluoromethyl)phenyl)-6-methyl-3-(pyrimidin-2-yl)-6,7-dihydroisoxazolo[4,5-c]pyridine-5(4H)-carboxamide]	100 to 1000 nM
CC1(C)CN(C(=O)Nc2ccnc(Br)c2F)Cc2c1noc2-c1ncccn1 [Example 12, N-(2-Bromo-3-fluoropyridin-4-yl)-7,7-dimethyl-3-(pyrimidin-2-yl)-6,7-dihydroisoxazolo[4,3-c]pyridine-5(4H)-carboxamide]	1 to 100 nM
C[C@H]1Cc2noc(-c3ncccn3)c2CN1C(=O)Nc1ccc(F)c(C#N)c1 [Example 1, (S)—N-(3-Cyano-4-fluorophenyl)-6-methyl-3-(pyrimidin-2-yl)-6,7-dihydroisoxazolo[4,3-c]pyridine-5(4H)-carboxamide]	1 to 100 nM
CC1(C)CN(C(=O)Nc2ccnc(Br)c2F)Cc2c(-c3ncccn3)noc21 [Example 16, N-(2-Bromo-3-fluoropyridin-4-yl)-7,7-dimethyl-3-(pyrimidin-2-yl)-6,7-dihydroisoxazolo[4,5-c]pyridine-5(4H)-carboxamide]	1 to 100 nM
CC1(C)CN(C(=O)Nc2ccc(F)c(C#N)c2)Cc2c(-c3ncccn3)noc21 [Example 13, N-(3-Cyano-4-fluorophenyl)-7,7-dimethyl-3-(pyrimidin-2-yl)-6,7-dihydroisoxazolo[4,5-c]pyridine-5(4H)-carboxamide]	100 to 1000 nM
C[C@H]1Cc2onc(-c3ncccn3)c2CN1C(=O)Nc1ccc(F)c(C#N)c1 [Example 5, (S)—N-(3-Cyano-4-fluorophenyl)-6-methyl-3-(pyrimidin-2-yl)-6,7-dihydroisoxazolo[4,5-c]pyridine-5(4H)-carboxamide]	1 to 100 nM
C[C@H]1Cc2onc(-c3ncccn3)c2CN1C(=O)Nc1ccnc(C(F)F)c1F [Example 6, (S)—N-(2-(Difluoromethyl)-3-fluoropyridin-4-yl)-6-methyl-3-(pyrimidin-2-yl)-6,7-dihydroisoxazolo[4,5-c]pyridine-5(4H)-carboxamide]	1 to 100 nM
CC1(C)CN(C(=O)Nc2ccc(F)c(C(F)(F)F)c2)Cc2c1noc2-c1ncccn1 [Example 10, N-(4-Fluoro-3-(trifluoromethyl)phenyl)-7,7-dimethyl-3-(pyrimidin-2-yl)-6,7-dihydroisoxazolo[4,3-c]pyridine-5(4H)-carboxamide]	100 to 1000 nM
